# Measurements taken from BindingDB's records for doi:10.1016/j.bioorg.2015.09.004 (Universiti Teknologi Mara, 2015).
# pIC50: −log10 of the molar value.
# Molecular target: Alpha-glucosidase MAL12 (Saccharomyces cerevisiae (strain ATCC 204508 / S288c), UniProt P53341)
# Experiment: Baker's Yeast alpha-Glucosidase Inhibition Assay
# Details: pH 6.8; 37 °C
# Method: The enzyme inhibition was evaluated according to the method previously reported by Taha et al. with slight modification. Various concentration of test compounds (10 uL) were dissolved in DMSO (ranging from 200 to 6.25 ug/mL) and premixed with 95 uL of 50 mM phosphate buffer (pH 6.8). Then, 25 uL of enzyme (0.0625 U/mL) in phosphate buffer saline was added into each well and the plate was incubated at 37 °C for 10 min. Afterward, 25 uL of PNPG in phosphate buffer saline (5 mM) were added and pre-read of the plate was taken by using a microplate reader (Spectrostar Nano BMG Labtech, Germany). The reaction mixture was then incubated at 37 °C for 30 min and change in absorbance at 405 nm was monitored up to 30 min. For negative control, the test samples were replaced with 10 uL of DMSO and acarbose was used as positive control. All experiments were triplicated and the results were expressed as the mean +/- S.E.M of three determinations.
# Alpha-glucosidase MAL12, sequence (P53341 whole entry): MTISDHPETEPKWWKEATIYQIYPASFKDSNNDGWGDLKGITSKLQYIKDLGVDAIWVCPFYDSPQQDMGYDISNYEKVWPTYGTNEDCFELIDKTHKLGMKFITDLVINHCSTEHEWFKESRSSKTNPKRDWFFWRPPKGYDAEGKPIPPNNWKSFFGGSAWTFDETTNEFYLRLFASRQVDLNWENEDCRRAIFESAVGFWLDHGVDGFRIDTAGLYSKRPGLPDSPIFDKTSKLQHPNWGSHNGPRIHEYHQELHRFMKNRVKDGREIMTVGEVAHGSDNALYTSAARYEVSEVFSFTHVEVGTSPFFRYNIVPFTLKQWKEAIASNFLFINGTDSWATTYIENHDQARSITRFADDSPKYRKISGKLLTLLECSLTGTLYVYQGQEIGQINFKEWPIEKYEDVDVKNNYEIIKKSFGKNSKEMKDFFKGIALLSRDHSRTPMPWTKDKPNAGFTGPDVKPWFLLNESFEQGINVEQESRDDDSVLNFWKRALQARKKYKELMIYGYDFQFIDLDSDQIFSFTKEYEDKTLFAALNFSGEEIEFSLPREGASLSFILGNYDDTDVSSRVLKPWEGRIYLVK
row,Compound,pIC50
1,O=c1oc2ccccc2c(O)c1C(c1ccc(NC(=S)Nc2ccc([N+](=O)[O-])cc2)cc1)c1c(O)c2ccccc2oc1=O [1-(4-(bis(4-Hydroxy-2-oxo-2H-chromen-3-yl)methyl)phenyl)-3-(4-nitrophenyl) thiourea (18)],4.61
2,O=c1oc2ccccc2c(O)c1C(c1ccc(NC(=S)Nc2cccc([N+](=O)[O-])c2)cc1)c1c(O)c2ccccc2oc1=O [1-(4-(bis(4-Hydroxy-2-oxo-2H-chromen-3-yl)methyl)phenyl)-3-(3-nitrophenyl)-thiourea (17)],4.29
3,O=c1oc2ccccc2c(O)c1C(c1ccc(NC(=S)Nc2ccccc2Br)cc1)c1c(O)c2ccccc2oc1=O [1-(4-(bis(4-Hydroxy-2-oxo-2H-chromen-3-yl)methyl)phenyl)-3-(2-bromophenyl)-thiourea (1)],4.43
4,O=c1oc2ccccc2c(O)c1C(c1ccc(NC(=S)Nc2ccc(Br)cc2)cc1)c1c(O)c2ccccc2oc1=O [1-(4-(bis(4-Hydroxy-2-oxo-2H-chromen-3-yl)methyl)phenyl)-3-(4-bromophenyl)-thiourea (3)],4.41
5,O=c1oc2ccccc2c(O)c1C(c1ccc(NC(=S)Nc2cccc(F)c2)cc1)c1c(O)c2ccccc2oc1=O [1-(4-(bis(4-Hydroxy-2-oxo-2H-chromen-3-yl)methyl)phenyl)-3-(3-fluorophenyl)-thiourea (8)],4.26
6,O=c1oc2ccccc2c(O)c1C(c1ccc(NC(=S)Nc2ccc(F)cc2)cc1)c1c(O)c2ccccc2oc1=O [1-(4-(bis(4-Hydroxy-2-oxo-2H-chromen-3-yl)methyl)phenyl)-3-(4-fluorophenyl)-thiourea (9)],4.27
7,O=c1oc2ccccc2c(O)c1C(c1ccc(NC(=S)Nc2cccc(Br)c2)cc1)c1c(O)c2ccccc2oc1=O [1-(4-(bis(4-Hydroxy-2-oxo-2H-chromen-3-yl)methyl)phenyl)-3-(3-bromophenyl)-thiourea (2)],4.45
8,O=c1oc2ccccc2c(O)c1C(c1ccc(NC(=S)Nc2ccccc2F)cc1)c1c(O)c2ccccc2oc1=O [1-(4-(bis(4-Hydroxy-2-oxo-2H-chromen-3-yl)methyl)phenyl)-3-(2-fluorophenyl)-thiourea (7)],4.04
